This note sets out measurements from PMC8157715 (2020).

The subject of assay [1] is Wide-type adenosine Apt (wild-type aptamer) (DNA, aptamer) ACCTGGGGGAGTATTGCGGAGGAAGGT
Nature of the assay: SYBR Green I fluorescence. Conditions: 100 mM NaCl, 5 mM MgCl2, 20 mM HEPES pH 7.6, 2 mM.

In assay [2] the test system is A10-excised Apt (DNA, aptamer) GTATTGCGGAGGAAGGTTTTTAACCTTCGGGG
Nature of the assay: SYBR Green I fluorescence. Conditions: 100 mM NaCl, 5 mM MgCl2; 20 mM HEPES pH 7.6; SYBR Green I displaced; 2 mM.

The subject of assay [3] is Res-A10-Right cut (DNA, aptamer) GTATTGCGGAGGAAGGTTTTTAACCTTCGGGGA
Nature of the assay: SYBR Green I fluorescence. Conditions: 100 mM NaCl, 5 mM MgCl2; 20 mM HEPES pH 7.6; SYBR Green I displaced; 2 mM.

Assay [4] has as its system Duplex-2 (DNA, hairpin) GTATTGCGCCCCGAAGGTTTTTAACCTTCGGGG
The experiment in a line: SYBR Green I fluorescence. The note with it: 100 mM NaCl, 5 mM MgCl2; 20 mM HEPES pH 7.6; 12.5 nM SYBR Green I; 2 mM.

Assay [5] concerns One-site Apt (DNA, aptamer) ACCTTCGGGGAGTATTGCGGAGGAAGGT
Nature of the assay: ITC. The note with it: 100 mM NaCl, 5 mM MgCl2; 20 mM HEPES pH 7.6, 10 °C, one-site model.

In assay [6] the test system is A10-excised Apt (DNA, aptamer) GTATTGCGGAGGAAGGTTTTTAACCTTCGGGG
The experiment in a line: ITC. Conditions: 100 mM NaCl, 5 mM MgCl2, 20 mM HEPES pH 7.6, 10 °C.

The subject of assay [7] is Res-A10-Right cut (DNA, aptamer) GTATTGCGGAGGAAGGTTTTTAACCTTCGGGGA
Nature of the assay: ITC. Conditions: 100 mM NaCl, 5 mM MgCl2, 20 mM HEPES pH 7.6, 10 °C.

Assay [8] relates to Duplex-1 (DNA, hairpin) GGGGGTATTGCCCCCGCAAGGTTTTTAACCTTG
Nature of the assay: SYBR Green I fluorescence. The note with it: 100 mM NaCl, 5 mM MgCl2; 20 mM HEPES pH 7.6; 12.5 nM SYBR Green I; 2 mM.

For assay [9], the system named is A10-excised Apt (DNA, aptamer) GTATTGCGGAGGAAGGTTTTTAACCTTCGGGG
The experiment in a line: SYBR Green I fluorescence titration. Conditions: 100 mM NaCl, 5 mM MgCl2, 20 mM HEPES pH 7.6.

For assay [10], the system named is Res-A10-Right cut (DNA, aptamer) GTATTGCGGAGGAAGGTTTTTAACCTTCGGGGA
The experiment in a line: SYBR Green I fluorescence titration. Conditions: 100 mM NaCl, 5 mM MgCl2, 20 mM HEPES pH 7.6.

Assay [11] deals with Res-A10-Left cut (DNA, aptamer) AGTATTGCGGAGGAAGGTTTTTAACCTTCGGGG
Nature of the assay: SYBR Green I fluorescence titration. Conditions: 100 mM NaCl, 5 mM MgCl2; 20 mM HEPES pH 7.6; SYBR Green I (50 nM) displaced; apparent.

For assay [12] the test system is unchanged. The experiment in a line: SYBR Green I fluorescence. Conditions: 100 mM NaCl, 5 mM MgCl2; 20 mM HEPES pH 7.6; SYBR Green I displaced; drop two thirds of adenosine's.
Setting [13] is: SYBR Green I (50 nM) displaced, apparent.
Setting [14] is: 1 mM AMP in syringe, extremely weak, undetectable heat.

For `Cn1c(=O)c2[nH]cnc2n(C)c1=O`, the binding result in assay [1] (SYBR Green I displaced) and in assay [2] was “no” in each case.
For `Nc1ccn([C@@H]2O[C@H](CO)[C@@H](O)[C@H]2O)c(=O)n1`, the binding entry in assay [1] (SYBR Green I displaced), in [2], in assay [3] and in assay [4] was “no” each time.
In the case of `Nc1nc2c(ncn2[C@@H]2O[C@H](CO)[C@@H](O)[C@H]2O)c(=O)[nH]1`, the binding result in assay [1] (SYBR Green I displaced) and in assay [2] was “no” in each case.
Take `Nc1ncnc2c1ncn2[C@@H]1O[C@H](CO)[C@@H](O)[C@H]1O`: the Kd in assay [5] is 2.8 ± 0.1 µM; in assay [6] (one-site model), 14.8 ± 2.1 µM; in assay [7] (one-site model), 21.0 ± 3.8 µM; in assay [9] (setting [13]), 370 µM; in assay [11], 570 µM. Also, the binding entry is reported as “yes” in assay [1] (50 nM SYBR Green I displaced), “no” in assay [8] and “no” in [4]. Also, the half saturation in assay [10] (setting [13]) turned out to be 0.94 mM.
Compound `Nc1ncnc2c1ncn2[C@@H]1O[C@H](COP(=O)(O)O)[C@@H](O)[C@H]1O` came in with a Kd in assay [5] of 13.5 ± 1.6 µM. Moreover, the binding entry is given as “no” in assay [6] (setting [14]); “no” in assay [7] (setting [14]); “yes” in [1] (50 nM SYBR Green I displaced); “yes” in assay [12]; “no” in assay [9] (SYBR Green I displaced, up to 2 mM); “no” in [10] (SYBR Green I displaced, no binding in titration).
Consider `Nc1ncnc2c1ncn2[C@@H]1O[C@H](COP(=O)(O)OP(=O)(O)OP(=O)(O)O)[C@@H](O)[C@H]1O`, for which the figures for the binding entry in assay [1] (50 nM SYBR Green I displaced), in assay [2] and in assay [3] were “yes”, “no” and “no”, respectively.
On to `O=c1ccn([C@@H]2O[C@H](CO)[C@@H](O)[C@H]2O)c(=O)[nH]1`, for which the binding entry in assay [1] (SYBR Green I displaced), in assay [2] and in [3] was “no” throughout.
